Laboratory results taken from patent publication US20250355000A1, “URINARY BRANCHED-CHAIN AMINO ACIDS (UBCAAS) AS INSULIN RESISTANCE BIOMARKERS” (SKILLCELL, priority 2022, published 2025).
Read-outs that look alike come from different tables or passages of the source.

System: Leucine Dehydrogenase (LeuDH) from B. cereus containing a SUMO-protein domain
Type: biochemical, Bacillus cereus
Conditions: for A 600 nm (absorbance values for L-amino acids): 15 minutes at 37° C., 100 mM Tris-HCl pH7.5, MTT reduction
Excerpt: The IDIr biochemical network uses the enzyme Leucine Dehydrogenase (LeuDH) for oxidizing the branched-chain amino acids (BCAA) and for producing the colorimetric substrate, blue reduced MTT. The absorbance values are proportional to BCAA levels. Detection and measurement branched-chain amino acids in biological fluids (serum and urine) correlate with insulin-resistance indexes. Thus, the substrate specificity (other L-amino acids than BCAA) of Leucine Dehydrogenase (LeuDH) from B. cereus containing a SUMO-protein domain needs to be verified to avoid erroneous results using IDIr test.
Analysis of the substrate specificity of the Leucine Dehydrogenase co-expressed with SUMO-protein domain was done using 18 natural proteinogenic L-amino acids in the same conditions used for determining the kinetic parameter of LeuDH with BCAA as substrates.
All solutions were prepared in 100 mM Tris-HCl pH7.5 buffer
• NAD+50 mM • Ascorbate Oxidase 10 U/mL • 1M-PMS 0.2 mM
• MTT 2 mM • Leucine Dehydrogenase 75 U/mL • L-amino acids • L-Leucine 1 mM • L-Valine 1 mM • L-Isoleucine 1 mM • L-Alanine 1 mM • L-Arginine 1 mM • L-Aspartate 1 mM • L-Glycine 1 mM • L-Glutamate 1 mM • L-Glutamine 1 mM • L-Histidine 1 mM • L-Lysine 1 mM • L-Methionine 1 mM • L-Phenylalanine 1 mM • L-Proline 1 mM • L-Serine 1 mM • L-Threonine 1 mM • L-Tryptophan 1 mM • L-Tyrosine 1 mM
8 μL of A Solution were pre-incubated with 53 μL of each L-amino acid separately in a well of the microplate for 5 minutes at 37° C. Then, 4 μL of B Solution were added. The kinetics of the reactions were followed during 30 minutes at 37° C. Absorbances were read at 600 nm every 60 seconds.
Blanks were performed using Tris-HCl 100 mM pH 7.5 buffer containing no L-amino acid during the incubation with A solution. Experiments were performed in duplicates. Results were normalized to the oxidation of L-leucine at 15 minutes.
Oxidation of L-amino acids was followed by colorimetric reduction of Thyazolyl Blue Tetrazolium Bromide. Absorbance at 600 nm is proportional to the concentration of L-amino acids in solution.

[1] = normalized to L-Leucine oxidation at 15 minutes (100%), 37° C., L-amino acid 1 mM

Compound	A 600 nm (absorbance values for L-amino acids) (L-amino acid 1 mM)	Normalized activity (%) [1] [%]	Normalized activity (%)
C[C@H](N)C(=O)O [ALA, L-Alanine]	0.002	0.3	–
N=C(N)NCCC[C@H](N)C(=O)O [ARG, L-Arginine]	0.003	0.4	–
N[C@@H](CC(=O)O)C(=O)O [ASP, L-Aspartate]	0.000	0.0	–
NC(=O)CC[C@H](N)C(=O)O [GLN, L-Glutamine]	0.001	0.2	–
N[C@@H](CCC(=O)O)C(=O)O [GLU, L-Glutamate]	0.002	0.3	–
NCC(=O)O [GLY, L-Glycine]	0.001	–	0.1
N[C@@H](Cc1c[nH]cn1)C(=O)O [HIS, L-Histidine]	0.001	0.2	–
CC[C@H](C)[C@H](N)C(=O)O [ILE, L-Isoleucine]	0.601	102.5	–
CC(C)C[C@H](N)C(=O)O [LEU, L-Leucine]	0.587	100.0	–
NCCCC[C@H](N)C(=O)O [LYS, L-Lysine]	0.001	0.1	–
CSCC[C@H](N)C(=O)O [MET, L-Methionine]	0.019	–	3.2
N[C@@H](Cc1ccccc1)C(=O)O [PHE, L-Phenylalanine]	0.002	0.3	–
O=C(O)[C@@H]1CCCN1 [PRO, L-Proline]	0.008	–	1.3
N[C@@H](CO)C(=O)O [SER, L-Serine]	0.001	0.2	–
C[C@@H](O)[C@H](N)C(=O)O [THR, L-Threonine]	0.002	0.3	–
N[C@@H](Cc1c[nH]c2ccccc12)C(=O)O [TRP, L-Tryptophan]	0.003	0.4	–
N[C@@H](Cc1ccc(O)cc1)C(=O)O [TYR, L-Tyrosine]	0.002	0.3	–
CC(C)[C@H](N)C(=O)O [VAL, L-Valine]	0.612	104.3	–
